Source: patent US7928113B2, “Integrin-binding small molecules” (University of Southern California, priority 2005, dated 2011)
Read-outs that look alike come from different tables or passages of the source.

What was measured:
[1] = test system: panel of cancer cell lines; experiment: Cytotoxicity MTT assay, statements on the whole panel of cell lines; assay type: cell-based; conditions: for cytotoxicity (in words): MTT, panel of cell lines, highest dose tested 20 uM; for specificity of cytotoxicity among the cell lines (in words): five cell lines of Table 5
Method: (§1) Cytotoxicity Assay. Cytotoxicity was assessed by 3-(4,5-dimethylthiazol-2-yl)-2,5-diphenyltetrazolium bromide (MTT) assay as previously described.^41, 54 Briefly, cells were seeded in 96-well microtiter plates and allowed to attach. Cells were subsequently treated with a continuous exposure to the corresponding drug for 72 hours. An MTT solution (at a final concentration of 0.5 mg/mL) was added to each well and cells were incubated for 4 hours at 37° C. After removal of the medium, DMSO was added and the absorbance was read at 570 nm. All assays were done in triplicate. The IC50 was then determined for each drug from a plot of log (drug concentration) versus percentage of cell kill.
(§2) Cytotoxicity of Selected Compounds in a Panel of Cancer Cell lines. Initially, we tested all compounds in two breast cancer cell lines MDA-MB-435 and MCF7 with high and low αvβ3 expression as well as in HEY ovarian cancer cell line naturally resistant to cisplatin. […] We observed a remarkable specificity for some of the compounds against these cells. […] Considering the fact that αvβ3 mediates migration, attachment and apoptosis of cancer cells, the combination of these novel high affinity antagonists with conventional cytotoxic drugs should show improved therapeutic benefits without additional toxicity.
(§3) NVX-188 was tested for cytotoxicity by MTT assays in two breast cancer cell lines, MDA-MB-435 with high αvβ3 integrin expression and MCF7 with low αvβ3 integrin expression, and an ovarian cancer cell line, HEY, which was used to test for cell growth inhibition evidence. NVX-188 was further evaluated in a lung cancer cell line, NCI-H1975, and a mouse fibroblast, NIH3T3. NVX-188 was not cytotoxic at the highest dose level tested (20 uM).

[2] = test system: MCF7 breast cancer cell line; experiment: Cytotoxicity MTT assay, MCF7; assay type: cell-based, human; conditions: for inhibition at 20 µM: Homo sapiens, MCF7, 72 h MTT, read-out: % inhibition of cell growth at 20 μM, MCF7
From the text: (§4) Cell Culture. Human breast cancer cells (MCF-7, αvβ3—, overexpressed wild-type p53, ER+; MDA-MB 468, p53 mutant, ER+; and MDA-MB-435, αvβ3+, p53 mutant, ER−) and non-small cell lung cancer cells H1975 were obtained from the American Type Cell Culture (Rockville, Md. Q4). The HEY human ovarian carcinoma cell line naturally resistant to cisplatin (CDDP) was kindly provided by Dr. Dubeau (University of Southern California Norris Cancer Center). Cells were maintained as monolayer cultures in RPMI 1640 supplemented with 10% fetal bovine serum (Gemini-Bioproducts, Woodland, Calif.) and 2 mmol/L L-glutamine at 37° C. in a humidified atmosphere of 5% CO2. To remove the adherent cells from the flask for passaging and counting, cells were washed with PBS without calcium or magnesium, incubated with a small volume of 0.25% trypsin-EDTA solution (Sigma, St. Louis, Mo.) for 5 to 10 minutes, and washed with culture medium and centrifuged. All experiments were done using cells in exponential cell growth.
as §1, §2, §3

[3] = Cytotoxicity MTT assay, MCF7; assay type: cell-based, human; conditions: human, MCF-7 breast cancer cells; MCF-7, Table 5
From the text: as §4, §1, §2, §3

[4] = Cytotoxicity MTT assay, HEY; assay type: cell-based, human; conditions: human, HEY ovarian carcinoma cells; HEY, Table 5
From the text: as §4, §1, §2, §3

[5] = test system: HEY ovarian cancer cell line; experiment: Cytotoxicity MTT assay, HEY; assay type: cell-based, human; conditions: for inhibition at 20 µM: Homo sapiens, HEY, 72 h MTT, read-out: % inhibition of cell growth at 20 μM, HEY
From the text: as §4, §1, §2, §3

[6] = biological target: T1, αvβ3 integrin (Homo sapiens, UniProt P05106+P06756); experiment: Receptor binding assay, competitive binding with 125I-labeled echistatin on the surface of NCI-H1975 cells; conditions: for αvβ3 binding affinity (in words) / IC50: 125I-echistatin competition, NCI-H1975 cells; for fold higher affinity than the parent compound AV26: ratio of αvβ3 binding IC50 to AV26
T1 construct: endogenous in cells; host or cells: NCI-H1975 cells (non-small cell lung cancer), whole cells in suspension
Method: Receptor Binding Assay. […] 96-Well multiscreen DV plate (filter pore size: 0.65 μm, Millipore, Billerica, Mass.) was incubated with ^125I-echistatin (50,000 cpm/well) in the presence of increasing concentrations of αvβ3 antagonists. The total incubation volume was adjusted to 200 μL. After the cells were incubated for 3 h at room temperature, the plate was filtered through multiscreen vacuum manifold and washed twice with cold binding buffer. The hydrophilic PVDF filters were collected, and the radioactivity was determined using NaI(Tl) gamma counter (Packard, Meriden, Conn.). The best-fit IC50 values were calculated by fitting the data by nonlinear regression using GraphPad Prism (GraphPad Software, Inc., San Diego, Calif.). Experiments were carried out with triplicate samples.
αvβ3 Binding. Receptor binding affinity of all compounds on the surface of non-small cell lung cancer NCI-H1975 cells was determined in competitive binding experiments using ^125I-labeled echistatin as radioligand and the results are presented in Table 3. […] These compounds represent a novel set of antagonists with diverse structural scaffolds. […] This is an important feature considering the highly electrostatic nature of the RGD peptide binding region of αvβ3. The RGD peptide forms strong electrostatic interactions through its two charged ends with αvβ3 in the αvβ3-cyclic RGD peptide complex crystal structure. Compounds AV3, AV27, and AV32 broadly fall into a RGD mimetic antagonist category, since they have a carboxylate group or amine/amide group, at either ends that can establish similar electrostatic interactions with αvβ3. Additionally, presence of several hydrophilic functional groups on these compounds favors their interaction with the highly electrostatic region of the RGD binding site of αvβ3. Given these interesting structural features, we tested additional structurally close analogues of AV27 and AV32. However, substructure search queries using the core scaffolds of these compounds in our in-house databases yield no close analogues. Structure-activity studies around the core scaffolds of these two compounds might be an alternative option to further optimize their binding affinity towards αvβ3. […] We carried out a limited structure-activity relationship (SAR) analysis on compound AV26 by testing compounds AV34-AV38 in our binding assay (Table 3). The substructure search using the core scaffold of AV26 as a search query retrieved few compounds from our in-house database of 359,224 compounds. The analogues AV34-AV38 were purchased from Chemical Diversity (San Diego, Calif.) and screened for their αvβ3 binding affinity. […] Studies are also underway to selectively deliver cytotoxic agents such as paclitaxel to αvβ3 overexpressing cancers through covalent conjugation.
Receptor binding affinity of NVX-188 was determined through a competitive binding experiment using ^125I-radiolabeled echistatin on NCI-H1975 cells. Increasing concentrations of NVX-188 were added with a fixed amount of echistatin to determine the concentration of NVX-188 that prevents 50% of the echistatin from binding to αvβ3 integrin on the cell surface (i.e., IC50).

[7] = Cytotoxicity MTT assay, NIH3T3; assay type: cell-based, mouse; conditions: mouse, NIH3T3 fibroblasts; NIH3T3, Table 5
Method: as §1, §2, §3

[8] = test system: NIH3T3 mouse fibroblast; experiment: Cytotoxicity MTT assay, NIH3T3; assay type: cell-based; conditions: Table B
Method: as §1, §2, §3

[9] = Cytotoxicity MTT assay, MDA-MB-435; assay type: cell-based, human; conditions: human, MDA-MB-435 breast cancer cells; MDA-MB-435, Table 5
From the text: as §4, §1, §2, §3

[10] = test system: MDA-MB-435 breast cancer cell line; experiment: Cytotoxicity MTT assay, MDA-MB-435; assay type: cell-based, human; conditions: for inhibition at 20 µM: Homo sapiens, MDA-MB-435, 72 h MTT, read-out: % inhibition of cell growth at 20 μM, 435
From the text: as §4, §1, §2, §3

[11] = Cytotoxicity MTT assay, NCI-H1975; assay type: cell-based, human; conditions: human, NCI-H1975 non-small cell lung cancer cells; NCI-H1975, Table 5
From the text: as §4, §1, §2, §3

[12] = test system: NCI-H1975 lung cancer cell-line; experiment: Cytotoxicity MTT assay, NCI-H1975; assay type: cell-based, human; conditions: Table B
From the text: as §4, §1, §2, §3

[13] = read-out: αvβ3 binding affinity (IC50)

With COc1cc(Cl)c(/C=C2\S/C(=N/c3cccc(C(=O)O)c3)N(C)C2=O)cc1OC [AV38] the “cytotoxicity (in words)” value [1] was “not cytotoxic”, the inhibition at 20 µM [2] was 18% and the IC50 ([2]; Table B) was greater than 20 µM. It also gave an IC50 at 72 h [3] greater than 20 µM, an IC50 at 72 h [4] greater than 20 µM and an inhibition at 20 µM [5] of 0%. For the same compound, the IC50 ([5]; Table B) was greater than 20 µM, the “αvβ3 binding affinity (in words)” value [6] was “high-affinity binding characteristics at picomolar concentrations” and the “αvβ3 binding affinity (in words)” value ([6]; listed as NVX-188) was “active at picomolar concentrations”. The IC50 ([6]; same value restated in pM, read-out: αvβ3 integrin binding affinity (IC50)) was 30 pM, the “fold higher affinity than the parent compound AV26” value [6] was 800 fold and the IC50 at 72 h [7] was greater than 20 µM. The IC50 [8] was greater than 20 µM, the IC50 at 72 h [9] was greater than 20 µM and the inhibition at 20 µM [10] was 0%. For the same compound, the IC50 ([10]; Table B) was greater than 20 µM, the IC50 at 72 h [11] was greater than 20 µM and the IC50 [12] was greater than 20 µM.
With CN(C)c1ccc(/C=C2\SC(=Nc3ccc(O)cc3)NC2=O)cc1 [AV34] the “specificity of cytotoxicity among the cell lines (in words)” value [1] was “A similar trend, but smaller magnitude”, the inhibition at 20 µM [2] was 31% and the IC50 at 72 h [3] was greater than 20 µM. The IC50 at 72 h [4] was greater than 20 µM, the inhibition at 20 µM [5] was 25% and the IC50 at 72 h [9] was 2.8 ± 0.01 µM. It also gave an inhibition at 20 µM [10] of 65%.
With O=C(O)c1cccc(-c2ccc(/C=N/Nc3nc4nonc4nc3Nc3ccc(F)cc3)o2)c1 [AV30] the “specificity of cytotoxicity among the cell lines (in words)” value [1] was “a profile very similar in MDA-MB-435, HEY, and NIH3T3 cells, but was significantly less active against MCF-7 and NCI-H1975 cells”, the inhibition at 20 µM [2] was 52% and the IC50 at 72 h [3] was 19 ± 4 µM. For the same compound, the IC50 at 72 h [4] was 7 ± 0.42 µM, the inhibition at 20 µM [5] was 90% and the IC50 at 72 h [7] was 13 ± 3 µM. It also gave an IC50 at 72 h [9] of 8 ± 0.5 µM, an inhibition at 20 µM [10] of 71% and an IC50 at 72 h [11] greater than 20 µM.
In the case of CCOc1ccc(/N=C2/S/C(=C\c3ccc(N(C)C)cc3)C(=O)N2CC)cc1 [AV35], the inhibition at 20 µM [2] is reported as 36%, the IC50 at 72 h [3] is reported as greater than 20 µM and the IC50 at 72 h [4] is reported as greater than 20 µM. For the same compound, the inhibition at 20 µM [5] was 17%, the IC50 [6, 13] was 24000 pM and the “fold higher affinity than the parent compound AV26” value [6] was 10 fold. For the same compound, the IC50 at 72 h [7] was greater than 20 µM, the IC50 at 72 h [9] was greater than 20 µM and the inhibition at 20 µM [10] was 26%. The IC50 at 72 h [11] was greater than 20 µM.
In the case of CCOc1cc(/C=C2\S/C(=N/c3ccc(C(=O)O)cc3)N(C)C2=O)ccc1O [AV26], the “cytotoxicity (in words)” value [1] is reported as “considerable cytotoxicity in a breast cancer cell line”, the inhibition at 20 µM [2] is reported as 37% and the IC50 at 72 h [3] is reported as greater than 20 µM. The IC50 at 72 h [4] was 13 ± 8 µM, the inhibition at 20 µM [5] was 51% and the IC50 [6, 13] was 240000 pM. For the same compound, the IC50 at 72 h [7] was greater than 20 µM, the IC50 at 72 h [9] was 0.34 ± 0.06 µM and the inhibition at 20 µM [10] was 94%. For the same compound, the “fold selectivity for MDA-MB-435 cells as compared to the HEY cells” value ([10]; cytotoxicity IC50 ratio) was roughly 40 fold, the “fold selectivity for MDA-MB-435 cells as compared to the MCF7, NIH3T3, and CRL5908 cells” value ([10]; cytotoxicity IC50 ratio) was “more than 60 fold” and the IC50 at 72 h [11] was greater than 20 µM.
For Cc1ccc(NC(=O)CN2C(=O)N/C(=C\c3cccn3-c3cccc(C(=O)O)c3)C2=O)cc1 [AV27], the inhibition at 20 µM [2] was 0%, the IC50 at 72 h [3] was greater than 20 µM and the IC50 at 72 h [4] was greater than 20 µM. The inhibition at 20 µM [5] was 5%, the IC50 [6, 13] was 18000 pM and the IC50 at 72 h [7] was greater than 20 µM. It also gave an IC50 at 72 h [9] greater than 20 µM, an inhibition at 20 µM [10] of 0% and an IC50 at 72 h [11] greater than 20 µM.
